Measured values as given in patent US20080306102A1, “NOVEL SPIROOXYINDOLE COMPOUNDS AND DRUGS CONTAINING SAME” (KOWA CO., LTD., priority 2007, published 2008).
Where two headings read alike, the source gives them in different places.

Key:
[1] = target: T1, human 11β-HSD1 (Homo sapiens, UniProt P28845); test: Human 11β-HSD1 enzyme inhibitory activity (lysate of stably expressing HEK293 cells, cortisol by competitive ELISA); format: biochemical
T1 construct: expressed in transfected cells; sonicated cell suspension used as lysate
Protocol: (§1) Human 11β-HSD1-, human 11β-HSD2-Gene Clonings and Establishment of Stably Expressing Cells
(§2) Human 11β-HSD1- and human 11β-HSD2-gene clonings were conducted using as a template a reverse transcription product of human-liver RNA and human-kidney RNA (CELL APPLICATIONS) respectively, by means of PCR cloning with reference to nucleotide sequences of Genbank Accession No. NM_00.5525 and NM 000196. The obtained PCR products of about 0.9 kbp and 1.2 kbp were subcloned into an expression vector pcDNA3.1+/Zeo (Invitrogen).
(§3) Human 11β-HSD1- and human 11β-HSD2-expressing vectors were transfected into human kidney-derived cell line, HEK293 cells, using a transfection reagent, jet PEI (Funakoshi). Selection was conducted with 400 μg/mL of zeocine (Invitrogen) to provide stably-expressing-cell clones. The stably expressing cells were suspended in buffer solution A (20 mmol/L Tris-HCl, pH 7.4, 250 mmol/L sucrose, 1 mmol/L EGTA, 1 mmol/L EDTA, 1 mmol/L MgCl2), sonicated, and then stored at −80° C.
(§4) An enzymatic reaction was conducted using a polystyrene 96-well plate. Each well was added with 1 μL of a test agent dissolved in DMSO and then diluted (0.003 to 3 mmol/L), and further added with 10 μL of cell lysate diluted to a concentration of 0.1 mg/mL to 0.4 mg/mL. Next, 90 μL of buffer solution A containing substrate (100 nmol/L cortisone) and coenzyme (400 μmol/L NADPH) was added and the mixture was incubated at 37° C. for 1 hour. The enzymatic reaction was stopped by treating at 95° C. for 3 minutes. Cortisol that was present in the reaction solution was determined by a competitive ELISA shown below.
Anti-rabbit IgG antibody (Chemi-con) diluted to 2 μg/mL with carbonate buffer solution (pH 9.6) was added in 100 μL each to a 96-well immuno plate (Nunc) and immobilized by incubating at 4° C. overnight. 50 μL of enzymatic reaction solution was put onto the plates, and further, anti-cortisol antibody (Cosmo Bio) and HRP-labeled cortisol (Cosmo Bio), diluted with buffer solution B (25 mmol/L Tris-HCl pH 7.4, 137 mmol/L NaCl, 2.68 mmol/L KCl), were added in 50 μL respectively and incubated at 4° C. overnight. After washed three times with buffer solution B containing 0.05% Tween 20, the plates were allowed to develop color by adding 100 μL of color reagent, TMB (Moss). The color reaction was stopped by 25 μL of 1 mol/L sulfuric acid and the absorbance was determined at 450 nm with a microplate reader (Molecular Device, VersaMax).
The values of human 11β-HSD1 and human 11β-HSD2 activities were subtracted from 100, and the resultant values were regarded as the respective 11β-HSD inhibition rates of example compounds. For each example compound, the value of 50% inhibitory concentration (IC50) was calculated from 11β-HSD inhibition rates at plural concentrations, for 11β-HSD1 and 11β-HSD2 activities.

[2] = target: T2, human 11β-HSD2 (Homo sapiens, UniProt P80365); test: Human 11β-HSD2 enzyme inhibitory activity (lysate of stably expressing HEK293 cells, cortisol by competitive ELISA); format: biochemical; settings: human 11β-HSD2, HEK293 cell lysate, 37° C. 1 hour
T2 construct: expressed in transfected cells; sonicated cell suspension used as lysate
T2 sequence (P80365 1-405): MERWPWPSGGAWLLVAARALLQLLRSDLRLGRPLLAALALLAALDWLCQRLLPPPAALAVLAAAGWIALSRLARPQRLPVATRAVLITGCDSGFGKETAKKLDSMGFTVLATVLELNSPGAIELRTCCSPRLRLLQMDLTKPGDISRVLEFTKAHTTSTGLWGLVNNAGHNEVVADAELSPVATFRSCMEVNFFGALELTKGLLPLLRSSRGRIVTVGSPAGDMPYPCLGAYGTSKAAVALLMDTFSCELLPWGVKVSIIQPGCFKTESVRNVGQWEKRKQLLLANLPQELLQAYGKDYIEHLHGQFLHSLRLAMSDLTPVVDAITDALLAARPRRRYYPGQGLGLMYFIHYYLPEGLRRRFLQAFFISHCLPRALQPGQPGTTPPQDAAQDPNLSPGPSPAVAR
Protocol: as §1, §2, §3, §4
Anti-rabbit IgG antibody (Chemi-con) diluted to 2 μg/mL with carbonate buffer solution (pH 9.6) was added in 100 μL each to a 96-well immuno plate (Nunc) and immobilized by incubating at 4° C. overnight. […] The color reaction was stopped by 25 μL of 1 mol/L sulfuric acid and the absorbance was determined at 450 nm with a microplate reader (Molecular Device, VersaMax). […]

[3] = human 11β-HSD1, HEK293 cell lysate, 100 nmol/L cortisone, 400 μmol/L NADPH, 37° C. 1 hour, read-out: IC50(μM) HSD1

T1 sequence (P28845 whole entry): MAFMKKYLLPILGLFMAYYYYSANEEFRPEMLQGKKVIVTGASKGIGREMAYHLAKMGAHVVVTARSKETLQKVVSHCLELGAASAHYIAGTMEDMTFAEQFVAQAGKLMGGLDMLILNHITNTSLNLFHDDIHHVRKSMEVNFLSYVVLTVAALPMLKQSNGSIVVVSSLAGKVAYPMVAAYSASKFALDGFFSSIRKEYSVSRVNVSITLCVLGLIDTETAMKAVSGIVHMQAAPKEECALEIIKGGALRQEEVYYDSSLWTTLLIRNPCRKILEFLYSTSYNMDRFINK

SMILES | IC50 [1, 3] [µM] | IC50 [2] [µM] | IC50 ([1]; compound A actually synthesized and measured by the applicant, read-out: 50% inhibitory concentration (IC50) for 11β-HSD1 activity) [µM]
Cc1ccccc1OCC(=O)N1CCC2(CC1)C(=O)Nc1ccccc12 [Example 2, 1′-{2-(2-methylphenoxy)acetyl}spiro(indole-3,4′-piperidine)-2(1H)-one] | 0.82 |  | 
O=C(COc1ccccc1[N+](=O)[O-])N1CCC2(CC1)C(=O)Nc1ccccc12 [Example 12, 1′-{2-(2-nitrophenoxy)acetyl}spiro(indole-3,4′-piperidine)-2(1H)-one] | 1 |  | 
O=C(COc1cccc(Cl)c1Cl)N1CCC2(CC1)C(=O)Nc1ccccc12 [Example 40, 1′-{2-(2,3-dichlorophenoxy)acetyl}spiro(indole-3,4′-piperidine)-2(1H)-one] | 0.96 |  | 
CC(C)(C)c1ccccc1OCC(=O)N1CCC2(CC1)C(=O)Nc1ccccc12 [Example 52, 1′-{2-(2-t-butylphenoxy)acetyl}spiro(indole-3,4′-piperidine)-2(1H)-one] | 0.73 |  | 
O=C(N1CCC2(CC1)C(=O)Nc1ccccc12)C1(c2ccc(Cl)cc2)CC1 [compound A, 1′-{[1-(4-Chlorophenyl)cyclopropyl]carbonyl}spiro[indole-3, 4′-piperidin]-2(1H)-one, reference compound] |  |  | 3

Continued, values first:

IC50 [1, 3] [µM] | IC50 [2] [µM] | IC50 ([1]; compound A actually synthesized and measured by the applicant, read-out: 50% inhibitory concentration (IC50) for 11β-HSD1 activity) [µM] | SMILES
0.033 |  |  | O=C(COc1ccccc1C(F)(F)F)N1CCC2(CC1)C(=O)Nc1ccccc12 [Example 1, 1′-{2-(2-trifluoromethylphenoxy)acetyl}spiro(indole-3,4′-piperidine)-2(1H)-one]
0.087 | > 30 |  | O=C(COc1ccccc1I)N1CCC2(CC1)C(=O)Nc1ccccc12 [Example 10, 1′-{2-(2-iodophenoxy)acetyl}spiro(indole-3,4′-piperdine)-2 (1H)-one]
0.41 | > 30 |  | O=C(COc1ccccc1Br)N1CCC2(CC1)C(=O)Nc1ccccc12 [Example 49]
0.16 |  |  | O=C(CSc1ccccc1C(F)(F)F)N1CCC2(CC1)C(=O)Nc1ccccc12 [Example 70, 1′-{2-(2-trifluoromethylphenylthio)acetyl}spiro(indole-3,4′-piperidine)-2(1H)-one]
0.068 | > 30 |  | CN1C(=O)C2(CCN(C(=O)COc3ccccc3C(F)(F)F)CC2)c2ccccc21 [Example 76, 1-methyl-1′-{2-(2-trifluoromethylphenoxy)acetyl}spiro(indole-3,4′-piperidine)-2-one]
0.67 |  |  | CCN1C(=O)C2(CCN(C(=O)COc3ccccc3C(F)(F)F)CC2)c2ccccc21 [Example 80, 1-ethyl-1′-{2-(2-trifluoromethylphenoxy)acetyl}spiro(indole-3,4′-piperidine)-2-one]
0.43 |  |  | CCCN1C(=O)C2(CCN(C(=O)COc3ccccc3C(F)(F)F)CC2)c2ccccc21 [Example 81, 1-propyl-1′-{2-(2-trifluoromethylphenoxy)acetyl}spiro(indole-3,4′-piperidine)-2-one]
0.72 |  |  | O=C(COc1ccccc1C(F)(F)F)N1CCC2(CC1)C(=O)N(C1CC1)c1ccccc12 [Example 84, 1-cyclopropyl-1′-{2-(2-trifluoromethylphenoxy)acetyl}spiro(indole-3,4′-piperidine)-2-one]
